{
  "source": "paper PMC7852567",
  "about": "“A first-in-human phase 1 and pharmacological study of TAS-119, a novel selective Aurora A kinase inhibitor in patients with advanced solid tumours” (British Journal of Cancer, 2020)",
  "origin": "cited, not measured here",
  "tested_on": "ROS",
  "conditions": "cited from earlier work",
  "data": [
    {"compound": "COc1cc(Nc2ncc3c(n2)-c2ccc(Cl)cc2C(c2c(F)cccc2OC)=NC3)ccc1C(=O)O", "note": "[Alisertib]", "values": [
      {"measurement": "mean inhibition of ROS", "result": 80, "unit": "%"}
    ]}
  ]
}
